# Test results: ChEMBL document CHEMBL1201862, “PubChem BioAssay data set” (2004)
# Active and inactive are the calls of the source.
# Key:
# [1] = P. falciparum Dd2 growth inhibitors, dose response, SYBR Green, cherry-picked samples (AID 1159567); assay type: functional, cell-based
# [2] = P. falciparum 3D7-ScDHODH growth inhibitors, dose response, SYBR Green, dry powder samples (AID 1159570); assay type: functional, cell-based;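 note: parasite growth measured after 72 hours of compound exposure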
# [3] = P. falciparum Dd2 growth inhibitors, dose response, SYBR Green, dry powder samples (AID 1159566); assay type: functional, cell-based;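 note: potency for growth inhibition with lower SYBR green DNA signal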
# [4] = P. falciparum ATP4 D1247Y mutant growth inhibitors, dose response, NITD609-resistant line, SYBR Green, dry powder (AID 1159571); assay type: functional, cell-based;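 note: parasites synchronized at ring stage by sorbitol before testing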
# [5] = HepG2 cell cytotoxicity, dose response, cytotoxicity control, cherry-picked samples (AID 1159577); assay type: functional, cell-based
# [6] = HepG2 cell cytotoxicity, dose response, cytotoxicity control, plate reader, dry powder samples (AID 1159569); assay type: functional, cell-based;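 note: inhibitor potency with signal falling toward the positive control level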
# [7] = Plasmodium falciparum Dd2 Sybr green parasite growth Measured in Cell-Based and Microorganism Combination System Using Plate Reader - 2153-01_Inhibitor_Dose_DryPowder_Activity_Set3.; assay type: functional
# [8] = P. falciparum Dd2 growth inhibitors, dose response, SYBR Green, dry powder samples, set 9 (AID 1159568); assay type: functional, cell-based
# [9] = target: T1, Probable nicotinate-nucleotide adenylyltransferase (Staphylococcus aureus (strain N315), UniProt P65502); assay type: functional, Staphylococcus aureus subsp. aureus N315; settings: read-out: IC50_Mean;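 for IC50 Mean: confirmatory dose-response retesting of NadD inhibitor hits first found in an ultra-high-throughput screen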
# [10] = half-maximal inhibitory concentration for glucagon-like peptide-1 release, STC-1 cell line, dose-response (AID 1117345); assay type: functional, cell-based
# Streptococcus = test: Group A Streptococcus viability loss, dose response, counter-screen for streptokinase expression inhibitor project, luminescence, BacTiterGlo (AID 1915); assay type: functional, organism-based;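 note: potency for reduction of bacterial viability or growth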
# [11] = Glucagon-like peptide 1 release potency, NCI-H716 cell line, dose-response, half-maximal inhibitory concentration (AID 1117344); assay type: functional, cell-based
# [12] = system: Streptococcus sp. 'group A'; test: growth inhibition of control SK(-) GAS strain, dose response, counter-screen for streptokinase expression inhibitor project, luminescence, kanamycin, BacTiterGlo, confirmation (AID 1900); assay type: functional, organism-based
# Streptokinase A = target: T2, Streptokinase A (Streptococcus pyogenes serotype M1, UniProt P10520); test: S. pyogenes streptokinase expression inhibitors, potency, dose response, plasminogen activation absorbance, OD405 (AID 1914); assay type: functional, Streptococcus pyogenes M1 GAS;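 note: secreted streptokinase activity via plasminogen activation per viability signal from cell pellet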
# T2 sequence (P10520 whole entry): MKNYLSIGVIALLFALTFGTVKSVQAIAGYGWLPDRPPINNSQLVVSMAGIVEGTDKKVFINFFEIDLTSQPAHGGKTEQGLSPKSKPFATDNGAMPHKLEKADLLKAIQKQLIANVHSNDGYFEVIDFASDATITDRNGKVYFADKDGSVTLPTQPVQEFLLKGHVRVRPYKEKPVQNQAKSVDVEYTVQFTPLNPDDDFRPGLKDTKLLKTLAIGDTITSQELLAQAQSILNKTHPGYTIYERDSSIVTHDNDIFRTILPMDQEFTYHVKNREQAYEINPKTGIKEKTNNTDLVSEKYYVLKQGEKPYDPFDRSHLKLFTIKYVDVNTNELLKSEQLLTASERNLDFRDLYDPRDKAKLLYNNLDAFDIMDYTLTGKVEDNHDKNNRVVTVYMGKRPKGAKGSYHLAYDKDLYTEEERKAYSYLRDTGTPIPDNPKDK
# [13] = target: T1, Probable nicotinate-nucleotide adenylyltransferase; assay type: functional, Staphylococcus aureus subsp. aureus N315
# T1 sequence (P65502 whole entry): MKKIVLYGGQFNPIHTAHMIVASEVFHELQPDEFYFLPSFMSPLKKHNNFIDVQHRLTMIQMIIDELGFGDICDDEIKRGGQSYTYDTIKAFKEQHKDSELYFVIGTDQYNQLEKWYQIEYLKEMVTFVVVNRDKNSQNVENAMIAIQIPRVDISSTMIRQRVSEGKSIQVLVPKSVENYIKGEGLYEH
structure (smiles),measurement,setting,value
CC(C)NC(=O)N1[C@H](C#N)[C@H](c2ccc(-c3ccc(F)cc3)cc2)[C@H]1CO,AC50,[1],0.858 µM (active)
same,AC50,[2],18.2 µM (active)
same,AC50,[3],0.442 µM (active)
same,AC50,[4],0.469 µM (active)
same,AC50,[5],25.6 µM (active)
same,AC50,[6],79.5 µM (active)
same,AC50,[7],2.93 µM (active)
C[C@@H]1CN([C@H](C)CO)C(=O)c2c(c3ccccc3n2C)-c2ccccc2CO[C@@H]1CN(C)S(=O)(=O)c1ccc([N+](=O)[O-])cc1,AC50,[8],7.62 µM (active)
CC(C)(O)c1ccccc1CC[C@@H](SCC1(CC(=O)O)CC1)c1cccc(/C=C/c2ccc3ccc(Cl)cc3n2)c1 [MONTELUKAST SODIUM],IC50,[9],20.6 µM (active)
same,IC50,[10],> 40 µM (inactive)
same,EC50,Streptococcus,7.96 µM (active)
same,IC50,[11],20.7 µM (inactive)
same,EC50,[12],1.19 µM (active)
same,EC50,Streptokinase A,3.41 µM (active)
same,IC50,[13],6.18 µM (active)
